Test results from publication PMC10983791 (ACS chemical biology, 2023).
“Also recorded” adds a separate entry of the source. Each block holds one molecule with its values, some of them ahead of it.

Tests used:
Format in all cases: biochemical
[1] = biological target: T1, GNMT (Homo sapiens, UniProt Q14749); experiment: KM determination by method of initial rates, GNMT; details: read-out: KM, substrate, SAM 100 μM, MTase-Glo readout
T1 sequence (Q14749 1-295): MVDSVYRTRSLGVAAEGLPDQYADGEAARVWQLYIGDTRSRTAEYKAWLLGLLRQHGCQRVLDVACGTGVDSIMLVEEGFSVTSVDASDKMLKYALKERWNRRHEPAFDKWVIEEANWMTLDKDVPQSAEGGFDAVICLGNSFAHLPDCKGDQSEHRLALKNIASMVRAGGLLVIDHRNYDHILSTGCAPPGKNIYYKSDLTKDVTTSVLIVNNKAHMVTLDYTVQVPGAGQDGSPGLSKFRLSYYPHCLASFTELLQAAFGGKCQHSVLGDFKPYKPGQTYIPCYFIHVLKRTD

[2] = biological target: T2, NNMT (Homo sapiens, UniProt P40261); experiment: LC-MS orthogonal assay, NNMT
T2 sequence (P40261 1-264): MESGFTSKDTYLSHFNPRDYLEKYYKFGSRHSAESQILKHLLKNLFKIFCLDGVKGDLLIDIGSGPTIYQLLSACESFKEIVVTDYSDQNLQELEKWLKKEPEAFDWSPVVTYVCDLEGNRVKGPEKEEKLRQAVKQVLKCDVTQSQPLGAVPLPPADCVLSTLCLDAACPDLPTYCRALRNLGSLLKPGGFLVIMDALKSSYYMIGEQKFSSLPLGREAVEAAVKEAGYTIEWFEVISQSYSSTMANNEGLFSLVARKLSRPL

[3] = biological target: T3, HNMT (Homo sapiens, UniProt P50135); experiment: LC-MS orthogonal assay, HNMT; details: for response in MS assay: LC-MS dose response
T3 sequence (P50135 whole entry): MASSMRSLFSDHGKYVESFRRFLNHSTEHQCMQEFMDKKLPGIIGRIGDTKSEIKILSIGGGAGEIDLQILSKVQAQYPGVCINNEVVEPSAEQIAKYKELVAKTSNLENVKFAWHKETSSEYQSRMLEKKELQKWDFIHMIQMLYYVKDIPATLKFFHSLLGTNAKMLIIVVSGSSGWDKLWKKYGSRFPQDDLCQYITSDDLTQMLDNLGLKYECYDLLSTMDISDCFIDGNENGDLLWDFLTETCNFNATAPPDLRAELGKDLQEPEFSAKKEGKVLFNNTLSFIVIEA

[4] = biological target: T1, GNMT; experiment: LC-MS orthogonal assay, GNMT
[5] = biological target: T3, HNMT; experiment: MTase-Glo HNMT inhibition assay; details: for HNMT activity and specificity in SAR analysis: SAR expansion of diazepine chemotype; for potency loss: relative to the best analogs with pyridine nitrogen; for activity in HTS and follow-up: MTase-Glo, top dose 40 μM
[6] = biological target: T4, PNMT (Homo sapiens, UniProt P11086); experiment: LC-MS orthogonal assay, PNMT
T4 sequence (P11086 1-282): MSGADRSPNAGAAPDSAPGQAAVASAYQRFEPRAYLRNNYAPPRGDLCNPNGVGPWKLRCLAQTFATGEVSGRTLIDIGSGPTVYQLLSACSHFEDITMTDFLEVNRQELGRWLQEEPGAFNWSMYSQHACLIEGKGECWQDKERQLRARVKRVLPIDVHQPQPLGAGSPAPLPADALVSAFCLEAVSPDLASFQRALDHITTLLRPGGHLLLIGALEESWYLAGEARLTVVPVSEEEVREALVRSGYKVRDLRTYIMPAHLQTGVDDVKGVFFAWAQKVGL

[7] = biological target: T5, COMT (Homo sapiens, UniProt P21964); experiment: LC-MS orthogonal assay, COMT
T5 sequence (P21964 1-271): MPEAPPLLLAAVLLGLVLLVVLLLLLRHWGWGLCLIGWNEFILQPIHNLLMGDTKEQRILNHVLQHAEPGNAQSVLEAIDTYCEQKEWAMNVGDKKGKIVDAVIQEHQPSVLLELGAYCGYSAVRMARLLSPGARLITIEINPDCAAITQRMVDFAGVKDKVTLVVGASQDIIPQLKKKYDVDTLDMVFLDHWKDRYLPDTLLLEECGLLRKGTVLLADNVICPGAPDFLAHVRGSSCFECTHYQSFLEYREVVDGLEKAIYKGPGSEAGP

[8] = tested on: MTase-Glo coupled reporter assay; experiment: MTase-Glo counter-assay; details: 1 μM SAH in place of enzyme; for result in counter-assay replicates: two counter-assay replicates
[9] = biological target: T2, NNMT; experiment: MTase-Glo NNMT inhibition assay; details: for activity in HTS and follow-up: MTase-Glo, top dose 40 μM
[10] = biological target: GAMT (Homo sapiens, UniProt Q14353); experiment: MTase-Glo GAMT inhibition assay; details: for activity in HTS and follow-up: MTase-Glo, top dose 40 μM
[11] = biological target: T1, GNMT; experiment: MTase-Glo GNMT inhibition assay; details: for activity in HTS and follow-up: MTase-Glo, top dose 40 μM
[12] = biological target: T4, PNMT; experiment: MTase-Glo PNMT inhibition assay; details: for activity in HTS and follow-up: MTase-Glo, top dose 40 μM
[13] = biological target: T5, COMT; experiment: MTase-Glo COMT inhibition assay; details: for activity in HTS and follow-up: MTase-Glo, top dose 40 μM
[14] = 11-point dose response, up to 50 μM

HNMT activity and specificity in SAR analysis ([5]; 11-point dose response): potency loss
Compound: c1cncc(Nc2cc3c(cn2)CN(CC2CCOC2)CCN3)c1 (centres unmarked) [NCGC00411147]

HNMT activity and specificity in SAR analysis ([5]; 11-point dose response): reduce activity
Compound: Cn1cc(CN2CCNc3cc(Nc4cccnc4)ncc3C2)cn1 [NCGC00411154]

HNMT activity and specificity in SAR analysis ([5]; 11-point dose response): reduced specificity
Compound: c1cncc(Nc2cc3c(cn2)CN(Cc2c[nH]c4ccccc24)CCN3)c1 [NCGC00411220]

result in counter-assay replicates [8]: conflicting results
response in MS assay [2]: did not inhibit any SMMTase
response in MS assay [3]: did not inhibit any SMMTase
response in MS assay [4]: did not inhibit any SMMTase
response in MS assay [6]: did not inhibit any SMMTase
response in MS assay [7]: did not inhibit any SMMTase
Compound: Cc1ccc(C(=O)Nc2cnn(-c3ncncc3N3CCC(C)CC3)c2)s1 [NCGC00519779]
activity in HTS and follow-up [9]: showed activity against all of the SMMTases tested
activity in HTS and follow-up [10]: showed activity against all of the SMMTases tested
activity in HTS and follow-up [11]: showed activity against all of the SMMTases tested
activity in HTS and follow-up [5]: showed activity against all of the SMMTases tested
activity in HTS and follow-up [12]: showed activity against all of the SMMTases tested
activity in HTS and follow-up [13]: showed activity against all of the SMMTases tested

inhibition of counter-assay by positive control [8]: not inhibited
inhibition by positive control [9, 14]: inhibitable
inhibition by positive control [10, 14]: inhibitable
inhibition by positive control [11, 14]: All MTases except GNMT were inhibitable
inhibition by positive control [5, 14]: inhibitable
inhibition by positive control [12, 14]: inhibitable
inhibition by positive control [13, 14]: inhibitable
Compound: Nc1ncnc2c1ncn2[C@@H]1O[C@H](C[C@@H](N)CC[C@H](N)C(=O)O)[C@@H](O)[C@H]1O [sinefungin, reference compound]

Further lines, the molecule ahead of its results:

Compound: NCC(=O)O [Glycine]
Km [1]: > 500 µM

Compound: c1cncc(Nc2cc3c(cn2)CN(Cc2ccsc2)CCN3)c1 [NCGC00411044]
response in MS assay [2]: No response
IC50 ([3]; read-out: IC50, MS assay, LC-MS readout of SAH, n=3): 670 nM
response in MS assay [4]: No response
HNMT activity and specificity in SAR analysis ([5]; 11-point dose response): most active HNMT-selective compounds; also recorded: showed best activity
IC50 ([5]; read-out: IC50, MTase Glo assay): 2450 nM
response in MS assay [6]: No response
response in MS assay [7]: No response

Compound: c1ccc(Nc2cc3c(cn2)CN(Cc2c[nH]c4ccccc24)CCN3)cc1 [NCGC00411050]
potency loss [5]: at least 10 fold

Compound: c1ccc(Nc2cc3c(cn2)CN(Cc2cc[nH]n2)CCN3)cc1 [NCGC00411115]
potency loss [5]: at least 10 fold

Compound: Fc1ccccc1CN1CCNc2cc(Nc3cccnc3)ncc2C1 [NCGC00411168]
HNMT activity and specificity in SAR analysis ([5]; 11-point dose response): showed best activity

Compound: Cc1cc(-c2cc3c(cn2)CN(Cc2cccs2)CCN3)ccn1 [NCGC00411196]
potency loss [5]: at least 10 fold

Compound: Oc1ccccc1CN1CCNc2cc(Nc3ccccc3)ncc2C1 [NCGC00411199]
potency loss [5]: at least 10 fold

Compound: COc1ccc(C(=O)Nc2cnn(-c3ncncc3N3CCC(C)CC3)c2)cc1 [NCGC00519772]
result in counter-assay replicates [8]: conflicting results
response in MS assay [2]: did not inhibit any SMMTase
activity in HTS and follow-up [9]: showed activity against all of the SMMTases tested
activity in HTS and follow-up [10]: showed activity against all of the SMMTases tested
activity in HTS and follow-up [11]: showed activity against all of the SMMTases tested
response in MS assay [3]: did not inhibit any SMMTase
response in MS assay [4]: did not inhibit any SMMTase
activity in HTS and follow-up [5]: showed activity against all of the SMMTases tested
response in MS assay [6]: did not inhibit any SMMTase
response in MS assay [7]: did not inhibit any SMMTase
activity in HTS and follow-up [12]: showed activity against all of the SMMTases tested
activity in HTS and follow-up [13]: showed activity against all of the SMMTases tested
